# Measured values from patent US4933347A, “Diamidines and bis(imidazolines) for the treatment of and prophylaxis against pneumocystis carinii pneumonia” (University of North Carolina at Chapel Hill, priority 1988, dated 1990).
# “Also recorded” adds a separate entry of the source.
# Tested on: Pneumocystis carinii
# Test: Treatment of Pneumocystis carinii pneumonia in Sprague-Dawley rats (extent of disease by histologic score)
# Format: in vivo, male Sprague-Dawley rats
# Details: for Extent of Disease by Histologic Score: number of animals with score 0.5 / Extent of disease by histologic score (combined): number of animals in scoring group 0.5: 0.5 = <10 cysts found per 2 sections; for Extent of Disease by Histologic Score: number of animals with score 1 / Extent of disease by histologic score (combined): number of animals in scoring group 1: 1 = scattered cysts, <5% of lung involved; for Extent of Disease by Histologic Score: number of animals with score 2 / Extent of disease by histologic score (combined): number of animals in scoring group 2: 2 = scattered cysts; for Extent of Disease by Histologic Score: number of animals with score 2: 5-10% lung involved or small foci of infection; for Extent of Disease by Histologic Score: number of animals with score 3 / Extent of disease by histologic score (combined): number of animals in scoring group 3: 3 = scattered cysts; for Extent of disease by histologic score (combined): number of animals in scoring group 0.5 / Extent of disease by histologic score (combined): number of animals in scoring group 1 / Extent of disease by histologic score (combined): number of animals in scoring group 2 / Extent of disease by histologic score (combined): number of animals in scoring group 3 / Extent of disease by histologic score (combined): number of animals in scoring group 4: Table XII composite; for Extent of disease by histologic score (combined): number of animals in scoring group 2: 5-10% of lung involved; for Efficacy in treating PCP compared with control / Efficacy in treating PCP compared with pentamidine: 10 mg/kg unless otherwise noted
# Description: Induction and Treatment Of Pneumocystis Carinii in Sprague-Dawley Rats
# Male Sprague-Dawley rats, barrier raised, non-certified virus free, weighing 150-200g were obtained from Hilltop Laboratories and housed individually. Animals were begun on a low (8%) protein diet (ICN Biomedicals, Cincinnati, OH) and drinking water containing tetracycline (0.5 mg/ml) and dexamethasone (1.0 μg/ml) immediately upon arrival. This treatment was given for the next 8 weeks, monitoring fluid intake daily and weighing animals weekly. Dilutions of the drinking solution were made when animals consumed too much fluid so as to prevent cortisone poisoning. At the beginning of the sixth week, animals were divided into groups of 8 animals each and the test compounds were administered daily by i.v. injection at a dose of 10 mg/kg, unless otherwise noted, for the next 14 days.
# Animals were sacrificed at the end of the eighth week by chloroform inhalation and the left lung was removed aseptically and placed in sterile Hank's balanced salts solution without calcium or magnesium (HBSS-) for the ground tissue procedure. The right lung was inflated in situ with 10% […] and removed for histologic examination GMS staining. […]
# [1] = 10 mg/kg i.v. daily, 14 days, 10-50% of lung involved with some intense areas of infection
# [2] = 10 mg/kg i.v. daily, 14 days, 4 = >50% of lung involved with many intense areas of focal infection
# [3] = 10 mg/kg, 10-50% of lung involved
# [4] = 10 mg/kg, 4 = >50% of lung involved
# [5] = 1.25 mg/kg (dose from Table XII footnote e)
SMILES,"Extent of Disease by Histologic Score: number of animals with score 0.5 (10 mg/kg i.v. daily, 14 days)","Extent of Disease by Histologic Score: number of animals with score 1 (10 mg/kg i.v. daily, 14 days)","Extent of Disease by Histologic Score: number of animals with score 2 (10 mg/kg i.v. daily, 14 days)",Extent of Disease by Histologic Score: number of animals with score 3 [1],Extent of Disease by Histologic Score: number of animals with score 4 [2],Extent of disease by histologic score (combined): number of animals in scoring group 0.5 (10 mg/kg),Extent of disease by histologic score (combined): number of animals in scoring group 1 (10 mg/kg),Extent of disease by histologic score (combined): number of animals in scoring group 2 (10 mg/kg),Extent of disease by histologic score (combined): number of animals in scoring group 3 [3],Extent of disease by histologic score (combined): number of animals in scoring group 4 [4],Efficacy in treating PCP compared with control,Efficacy in treating PCP compared with pentamidine,other results
N=C(N)c1cccc(OCCCCOc2cccc(C(=N)N)c2)c1 [Example 27],2 animals,1 animals,1 animals,3 animals,0 animals,2 animals,1 animals,1 animals,3 animals,0 animals,,,
N=C(N)c1ccc(NCCCCCNc2ccc(C(=N)N)cc2N)c(N)c1 [Example 19],0 animals,2 animals,4 animals,2 animals,0 animals,3 animals,2 animals,3 animals,0 animals,0 animals,better than the control,not as good as pentamidine in controlling pcp,
N=C(N)c1ccc(OCCCCCOc2ccc(C(=N)N)cc2N)c(N)c1 [Example 14],,,,,0 animals,8 animals,5 animals,1 animals,1 animals,0 animals,significantly better than the control,improved performance in treating pcp; also recorded: approximately comparable to pentamidine in efficacy,
N=C(N)c1ccc(NCCCCCCNc2ccc(C(=N)N)cc2)cc1 [Example 39],2 animals,1 animals,0 animals,0 animals,0 animals,,,,,,,,
N=C(N)c1ccc(NCCCCNc2ccc(C(=N)N)cc2N)c(N)c1 [Example 37],0 animals,4 animals,3 animals,1 animals,0 animals,0 animals,4 animals,3 animals,1 animals,0 animals,,,Efficacy in treating PCP compared with related compounds of the series (effect of chain length or substituent): better than the nitro substituted compounds
N=C(N)c1ccc(OCCOc2ccc(C(=N)N)cc2N)c(N)c1 [Example 3],4 animals,4 animals,0 animals,0 animals,0 animals,4 animals,4 animals,0 animals,0 animals,0 animals,significantly better than the control,approximately comparable to pentamidine in efficacy,
N=C(N)c1ccc(NCCCCCCNc2ccc(C(=N)N)cc2N)c(N)c1 [Example 23],3 animals,1 animals,2 animals,0 animals,1 animals,3 animals,1 animals,2 animals,0 animals,1 animals,,,
N=C(N)c1ccc(OCCCCCCOc2ccc(C(=N)N)cc2[N+](=O)[O-])c([N+](=O)[O-])c1 [Example 21],,,,,,,,,,,,,"Extent of Disease by Histologic Score: number of animals with score 0.5 [5]: 4 animals; Extent of Disease by Histologic Score: number of animals with score 1 [5]: 1 animals; Extent of Disease by Histologic Score: number of animals with score 2 [5]: 1 animals; Extent of Disease by Histologic Score: number of animals with score 3 (1.25 mg/kg (dose from Table XII footnote e), 10-50% of lung involved): 0 animals; Extent of Disease by Histologic Score: number of animals with score 4 (1.25 mg/kg (dose from Table XII footnote e), 4 = >50% of lung involved): 0 animals; Extent of disease by histologic score (combined): number of animals in scoring group 0.5 (tested at 1.25 mg/kg): 4 animals; Extent of disease by histologic score (combined): number of animals in scoring group 1 (tested at 1.25 mg/kg): 1 animals; Extent of disease by histologic score (combined): number of animals in scoring group 2 (tested at 1.25 mg/kg): 1 animals; Extent of disease by histologic score (combined): number of animals in scoring group 3 (tested at 1.25 mg/kg, 10-50% of lung involved): 0 animals; Extent of disease by histologic score (combined): number of animals in scoring group 4 (tested at 1.25 mg/kg, 4 = >50% of lung involved): 0 animals"
N=C(N)c1cccc(OCCCCCCOc2cccc(C(=N)N)c2)c1 [Example 29],1 animals,4 animals,1 animals,2 animals,0 animals,1 animals,4 animals,1 animals,2 animals,0 animals,,,
